This passage reports IC50 cytotoxicity (DAPI nuclear signal decrease) and IC50 results from PubChem BioAssay AID651630 (Sanford-Burnham Center for Chemical Genomics, 2012).

The source made the active and inactive calls.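 The calls were made as follows: active = lipid-stain IC50 at or below a set limit, with nuclear-stain toxicity IC50 at least five times higher; inactive = the rest.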

What is called IC50 is the concentration at which inhibition is half-maximal.

One experiment has as its system DAPI. Put plainly: TAG lipid buildup inhibition with viability readout – cell-based, panel, Nile Red and DAPI fluorescence, H9c2, dose response (AID 651630).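 Also: cells exposed to compound overnight before fixation and staining.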 Particulars: H9c2 cells, DAPI nuclear fluorescence (cytotoxicity counter-readout), oleic acid.
The next experiment concerns TAG. The experiment is described as above. Particulars: H9c2 cells, Nile Red TAG fluorescence, oleic acid.

Consider `C[C@]12c3[nH]c4ccccc4c3CCN1C(=O)C(CC(=O)NCC13CC4CC(CC(C4)C1)C3)C[C@@H]2C(=O)N1CCCCC1` (some centres not stated), for which the figures for the IC50 cytotoxicity (DAPI nuclear signal decrease) in the experiment on DAPI (mean of runs), with DAPI (run 1) and with DAPI (run 2) were > 25 µM (inactive), over 25 µM and over 25 µM, respectively. In addition, the concentration for half-maximal inhibition (IC50) in the experiment on TAG (mean of runs) is 14.6 µM; in the experiment with TAG (run 1) it was 14.8 µM; in the experiment with TAG (run 2) it was 14.4 µM.
Consider `COC(=O)c1cc(C(=O)N2CCN(c3ccccc3OC)CC2)cc([N+](=O)[O-])c1`, for which the IC50 cytotoxicity (DAPI nuclear signal decrease) in the experiment on DAPI (mean of runs) was > 25 µM (inactive); in the experiment on DAPI (run 1), over 25 µM; in the experiment on DAPI (run 2), over 25 µM. Besides, the results for the IC50 in the experiment on TAG (mean of runs), in the experiment on TAG (run 1) and in the experiment on TAG (run 2) were 13.2 µM, 11.8 µM and 14.5 µM, respectively.
Consider `CCOc1cc(N2CCOCC2)c(OCC)cc1NC(=O)CC12CC3CC(CC(C3)C1)C2`, for which the IC50 cytotoxicity (DAPI nuclear signal decrease) in the experiment on DAPI (mean of runs) was > 25 µM (inactive); in the experiment on DAPI (run 1), over 25 µM; with DAPI (run 2), over 25 µM. The IC50 with TAG (run 1) was 22.4 µM; in the experiment with TAG (run 2), over 25 µM.
Regarding `CC(C)=CCC/C(C)=C/CNC(=O)C[C@H]1C[C@H](C(=O)N2CCCCC2)[C@@]2(CCc3ccccc3)c3[nH]c4cc(-c5ccco5)ccc4c3CCN2C1=O`, the values for the IC50 cytotoxicity (DAPI nuclear signal decrease) with DAPI (mean of runs), with DAPI (run 1) and in the experiment with DAPI (run 2) were > 25 µM (inactive), over 25 µM and over 25 µM, respectively. Moreover, the concentration for half-maximal inhibition (IC50) in the experiment with TAG (mean of runs) is 9.94 µM; in the experiment with TAG (run 1), 10.5 µM; in the experiment on TAG (run 2), 9.42 µM.
For `COc1ccc(CC(=O)Nc2ccc(-c3nnc(-c4ccc(C)cc4)o3)cc2)cc1`, the IC50 cytotoxicity (DAPI nuclear signal decrease) in the experiment with DAPI (mean of runs) is > 25 µM (inactive); in the experiment on DAPI (run 1) it was over 25 µM; with DAPI (run 2), over 25 µM. Besides, the IC50 was > 25 µM (inactive) in the experiment with TAG (mean of runs), over 25 µM with TAG (run 1) and over 25 µM in the experiment on TAG (run 2).
Consider `c1ccc(N=NC2=NN(c3ccccc3)CS2)cc1`, for which the IC50 cytotoxicity (DAPI nuclear signal decrease) in the experiment with DAPI (run 1) and with DAPI (run 2) was over 25 µM throughout. The IC50 is 3.69 µM in the experiment with TAG (mean of runs), 3.57 µM in the experiment with TAG (run 1) and 3.8 µM with TAG (run 2).
For `C[C@H]1CN([C@@H](C)CO)C(=O)Cc2cc(NC(=O)CCC(F)(F)F)ccc2O[C@H]1CN(C)S(=O)(=O)c1ccc(Cl)cc1`, the IC50 cytotoxicity (DAPI nuclear signal decrease) is > 25 µM (inactive) in the experiment on DAPI (mean of runs), over 25 µM with DAPI (run 1) and over 25 µM in the experiment on DAPI (run 2). For the same compound, the IC50 is > 25 µM (inactive) in the experiment with TAG (mean of runs), over 25 µM in the experiment on TAG (run 1) and over 25 µM in the experiment on TAG (run 2).
On to `Cc1nn2c(N3CCN(C)CC3)c3c(nc2c1-c1ccccc1)CCCC3`, for which the IC50 cytotoxicity (DAPI nuclear signal decrease) with DAPI (mean of runs) is > 25 µM (inactive); in the experiment with DAPI (run 1), over 25 µM; with DAPI (run 2) it was over 25 µM. Moreover, the IC50 is > 25 µM (inactive) with TAG (mean of runs), over 25 µM in the experiment with TAG (run 1) and over 25 µM in the experiment on TAG (run 2).
With `Cc1cc(NC(=O)CSc2nc3ccccc3c(=O)n2C2CCCC2)no1`, the results for the IC50 cytotoxicity (DAPI nuclear signal decrease) in the experiment with DAPI (mean of runs), in the experiment on DAPI (run 1) and in the experiment with DAPI (run 2) were > 25 µM (inactive), over 25 µM and over 25 µM, respectively. Also, the IC50 was 9.22 µM in the experiment with TAG (mean of runs), 7.24 µM with TAG (run 1) and 11.2 µM with TAG (run 2).
In the case of `Clc1ccc(-c2csc(NNC3=NCCCCC3)n2)cc1`, the values for the IC50 cytotoxicity (DAPI nuclear signal decrease) with DAPI (run 1) and in the experiment on DAPI (run 2) were 23.9 µM and over 25 µM, respectively. Moreover, the IC50 in the experiment on TAG (run 1) is under 0.78 µM; in the experiment on TAG (run 2), 0.875 µM.
For the compound `CC(C)C[C@H]1C(=O)N2CCC[C@H]2[C@]2(O)O[C@](NC(=O)[C@@H]3C=C4c5cccc6[nH]c(Br)c(c56)CC4N(C)C3)(C(C)C)C(=O)N12` (some centres not stated), the results for the IC50 cytotoxicity (DAPI nuclear signal decrease) in the experiment with DAPI (mean of runs), in the experiment on DAPI (run 1) and with DAPI (run 2) were > 25 µM (inactive), over 25 µM and over 25 µM, respectively. Further, the half-maximal inhibitory concentration (IC50) with TAG (mean of runs) was 6.72 µM; with TAG (run 1), 6.96 µM; in the experiment with TAG (run 2), 6.47 µM.
With `C=CC[C@@H](CC(=O)N(CCO)Cc1ccccc1)C(=O)N[C@@H](COC(=O)[C@@H](CC=C)Cc1ccc(F)cc1)Cc1ccccc1`, the figures for the IC50 cytotoxicity (DAPI nuclear signal decrease) in the experiment on DAPI (mean of runs), with DAPI (run 1) and in the experiment with DAPI (run 2) were > 25 µM (inactive), over 25 µM and over 25 µM, respectively. Also, the figures for the IC50 in the experiment on TAG (mean of runs), in the experiment on TAG (run 1) and in the experiment on TAG (run 2) were 9.33 µM, 8.74 µM and 9.91 µM, respectively.
As for `COC(=O)Nc1nc2ccc(Sc3ccccc3)cc2[nH]1`, the IC50 cytotoxicity (DAPI nuclear signal decrease) in the experiment on DAPI (mean of runs) was > 25 µM (inactive); in the experiment with DAPI (run 1), over 25 µM; in the experiment on DAPI (run 2) it was over 25 µM. Besides, the IC50 in the experiment with TAG (mean of runs) was > 25 µM (inactive); in the experiment with TAG (run 1) it was over 25 µM; in the experiment on TAG (run 2) it was over 25 µM.
Turning to `COc1cc(CC(=O)OCC(=O)c2ccc3c(c2)OCCO3)cc(OC)c1OC`, the IC50 cytotoxicity (DAPI nuclear signal decrease) in the experiment with DAPI (run 1) was 2.3 µM; with DAPI (run 2) it was over 25 µM. In addition, the IC50 in the experiment with TAG (run 1) was 17.1 µM; with TAG (run 2) it was over 25 µM.
Turning to `CCC(C)(C)NC(=O)C(c1ccc(OC)cc1)N(Cc1ccco1)C(=O)CCC(=O)Nc1cc(C)on1` (configuration not stated), the IC50 cytotoxicity (DAPI nuclear signal decrease) was > 25 µM (inactive) with DAPI (mean of runs), over 25 µM in the experiment on DAPI (run 1) and over 25 µM with DAPI (run 2). Moreover, the IC50 is 17.9 µM (inactive) with TAG (mean of runs), 21.1 µM with TAG (run 1) and 14.7 µM in the experiment with TAG (run 2).
As to `C[C@@H]1CN([C@H](C)CO)C(=O)c2c(c3ccccc3n2C)-c2ccccc2CO[C@H]1CN(C)Cc1ccc(Oc2ccccc2)cc1`, the IC50 cytotoxicity (DAPI nuclear signal decrease) in the experiment with DAPI (run 1) is over 25 µM; in the experiment on DAPI (run 2), 20 µM. Moreover, the IC50 in the experiment on TAG (mean of runs) is > 25 µM (inactive); in the experiment on TAG (run 1), over 25 µM; in the experiment on TAG (run 2), over 25 µM.
With `N#C/C(=C\c1cc([N+](=O)[O-])c(N2CCCCC2)cc1N1CCCCC1)c1nn(-c2ccccc2)c(N)c1C#N`, the IC50 cytotoxicity (DAPI nuclear signal decrease) in the experiment on DAPI (mean of runs) was > 25 µM (inactive); with DAPI (run 1) it was over 25 µM; in the experiment with DAPI (run 2), over 25 µM. The IC50 in the experiment with TAG (mean of runs) was > 25 µM (inactive); in the experiment with TAG (run 1), over 25 µM; in the experiment with TAG (run 2), over 25 µM.
`COc1ccc2sc(-c3ccc(S(C)(=O)=O)cc3)c(C#Cc3cncn3C)c2c1`: the IC50 cytotoxicity (DAPI nuclear signal decrease) in the experiment with DAPI (mean of runs) is > 25 µM (inactive); in the experiment with DAPI (run 1), over 25 µM; in the experiment on DAPI (run 2), over 25 µM. Further, the IC50 was > 25 µM (inactive) in the experiment with TAG (mean of runs), over 25 µM in the experiment with TAG (run 1) and over 25 µM with TAG (run 2).
Consider `CC(C)(C)c1cc(NCc2ccccn2)n2ncc(-c3ccc(Cl)cc3)c2n1`, for which the IC50 cytotoxicity (DAPI nuclear signal decrease) with DAPI (mean of runs) is > 25 µM (inactive); with DAPI (run 1), over 25 µM; in the experiment on DAPI (run 2), over 25 µM. In addition, the IC50 in the experiment with TAG (mean of runs) was > 25 µM (inactive); in the experiment on TAG (run 1), over 25 µM; with TAG (run 2), over 25 µM.
`CCOc1ccc(CCNC(=O)CCc2nc(-c3ccc(C)cc3)no2)cc1OCC`: the IC50 cytotoxicity (DAPI nuclear signal decrease) was > 25 µM (inactive) in the experiment with DAPI (mean of runs), over 25 µM in the experiment with DAPI (run 1) and over 25 µM in the experiment on DAPI (run 2). In addition, the IC50 is > 25 µM (inactive) with TAG (mean of runs), over 25 µM in the experiment with TAG (run 1) and over 25 µM in the experiment on TAG (run 2).
For `Cc1ccc2nc(NC(=O)CN(C)S(=O)(=O)c3cccc4nsnc34)sc2c1`, the figures for the IC50 cytotoxicity (DAPI nuclear signal decrease) with DAPI (mean of runs), in the experiment with DAPI (run 1) and in the experiment with DAPI (run 2) were > 25 µM (inactive), over 25 µM and over 25 µM, respectively. Also, the figures for the IC50 in the experiment with TAG (mean of runs), with TAG (run 1) and in the experiment with TAG (run 2) were 10.5 µM, 11.1 µM and 9.95 µM, respectively.
As to `CCCC1O[C@@H]2C[C@H]3[C@@H]4CCC5=CC(=O)C=C[C@]5(C)[C@H]4[C@@H](O)C[C@]3(C)[C@]2(C(=O)CO)O1` (some centres not stated), the IC50 cytotoxicity (DAPI nuclear signal decrease) in the experiment with DAPI (run 1) and in the experiment on DAPI (run 2) was over 25 µM throughout. Further, the IC50 in the experiment with TAG (mean of runs) was 3.49 µM; in the experiment on TAG (run 1), 3.52 µM; with TAG (run 2) it was 3.46 µM.
Turning to `CC1(C)CC(=O)C2=C(C1)Oc1nc3ccccc3cc1C2C(C#N)C#N` (configuration not stated), the IC50 cytotoxicity (DAPI nuclear signal decrease) with DAPI (mean of runs) is 12.7 µM (inactive); in the experiment with DAPI (run 1), 11.4 µM; in the experiment on DAPI (run 2), 14 µM. Moreover, the IC50 was 17.2 µM (inactive) with TAG (mean of runs), 16.5 µM in the experiment on TAG (run 1) and 17.8 µM in the experiment on TAG (run 2).
With `C=CC[C@@H](CC(=O)N(CCO)Cc1ccccc1)C(=O)N[C@H](COC(=O)[C@@H](CC=C)Cc1ccc(F)cc1)Cc1c[nH]c2ccccc12`, the values for the IC50 cytotoxicity (DAPI nuclear signal decrease) in the experiment with DAPI (mean of runs), with DAPI (run 1) and in the experiment on DAPI (run 2) were > 25 µM (inactive), over 25 µM and over 25 µM, respectively. The IC50 in the experiment with TAG (mean of runs) is 8.92 µM; with TAG (run 1) it was 7.83 µM; in the experiment on TAG (run 2), 10 µM.
With `COc1cc(C#Cc2c(-c3cncn3C)n(C)c3ccc(-c4ccc(OC)c(OC)c4)cc23)cc(OC)c1`, the figures for the IC50 cytotoxicity (DAPI nuclear signal decrease) with DAPI (mean of runs), with DAPI (run 1) and in the experiment with DAPI (run 2) were > 25 µM (inactive), over 25 µM and over 25 µM, respectively. Also, the results for the IC50 in the experiment on TAG (mean of runs), in the experiment on TAG (run 1) and in the experiment on TAG (run 2) were 8.76 µM, 8.47 µM and 9.05 µM, respectively.
For `COc1ccc(C2NCCc3c2[nH]c2ccccc32)cc1CSc1nc2ccccc2s1` (configuration not stated), the IC50 cytotoxicity (DAPI nuclear signal decrease) was over 25 µM in the experiment with DAPI (run 1) and 24.6 µM in the experiment with DAPI (run 2). The IC50 with TAG (mean of runs) was > 25 µM (inactive); in the experiment on TAG (run 1), over 25 µM; in the experiment on TAG (run 2), over 25 µM.
